For the first experiment, the target named is ALK5 (Homo sapiens (Human), UniProt P36897). As to the kind of experiment: Evaluation experiment of ALK5 enzyme activity inhibition IC50 (ADP-Glo kinase assay). The class given is biochemical.
ALK5, sequence (P36897 34-503): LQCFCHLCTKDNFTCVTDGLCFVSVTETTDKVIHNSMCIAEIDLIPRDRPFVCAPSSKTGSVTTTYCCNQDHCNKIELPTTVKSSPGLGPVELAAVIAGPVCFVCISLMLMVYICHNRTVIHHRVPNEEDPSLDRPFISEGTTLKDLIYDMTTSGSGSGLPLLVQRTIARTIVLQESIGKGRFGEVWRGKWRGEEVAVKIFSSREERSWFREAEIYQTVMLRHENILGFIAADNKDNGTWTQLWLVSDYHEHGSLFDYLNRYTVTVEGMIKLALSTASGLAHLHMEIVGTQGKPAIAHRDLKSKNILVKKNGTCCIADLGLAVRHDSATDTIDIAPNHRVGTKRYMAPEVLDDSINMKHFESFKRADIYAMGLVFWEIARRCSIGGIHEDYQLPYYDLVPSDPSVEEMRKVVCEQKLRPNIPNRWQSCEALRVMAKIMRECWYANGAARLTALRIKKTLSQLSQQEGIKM
Conditions: not given
The method, then:
1. Preparation of a 1× kinase buffer: 40 mM Tris (pH 7.5), 20 mM MgCl2, 0.10% BSA, 1 mM DTT.
2. Compound preparation: The final detection concentration of the compound was 10 μM, which was prepared to a 100-fold concentration, i.e., 1 mM. 100 μL of the 100-fold compound was added in the second well of the 384-well plate, and 60 μL of 100% DMSO was added to the other wells. […] 50 nL of the compound was transferred to the reaction plate with echo.
3. Kinase reaction: The kinase was added to a 1× kinase buffer to form a 2× enzyme solution. […] The polypeptide TGFbR1 (purchased from Signal Chem, catalog number T36-58) and ATP were added to a 1× kinase buffer to form a 2× substrate solution. The final concentration of the substrate solution was peptide TGFbR1 0.1 mg/mL, ATP 7 μM. 2.5 μL of the 2× enzyme solution was added to the 384-well reaction plate (there was already 50 nL of 100% DMSO dissolved compound), and a 1× kinase buffer was added to a negative control well. The reaction solution was incubated at room temperature for 10 minutes. 2.5 μL of 2× substrate solution was added to the 384-well reaction plate. The 384-well plate was covered and incubated at 30° C. for 1 hour. ADP-Glo reagent (purchased from Promege, catalog number v9102) was equilibrated to room temperature. 5 μL of ADP-Glo reagent was transferred to the reaction well of the 384-well plate to stop the reaction.
4. Detection of reaction results: 10 μL of kinase detection reagent was transferred to each well, shaken for 1 minute, and let stand at room temperature for 30 minutes. The sample luminescence value was read at Synegy.
5. Curve fitting: The data of the luminescence reading were copied from the Synegy program. The value of the luminescence reading was converted to inhibition percentage by a formula (inhibition percentage=(max−sample RLU)/(max−min)×100, where “min” was a fluorescence reading for a control sample without enzyme; “max” was a fluorescence reading for a sample with DMSO as a control). The data were imported into MS Excel and GraphPad Prism was used for curve fitting. IC50 value was calculated.
As usually defined, the IC50 is the concentration at which inhibition is half-maximal. `NC(=O)c1cnc2ccc(/C=C\c3cccc(C(F)(F)F)n3)cn12` [Compound 11] had a concentration for half-maximal inhibition (IC50) of 10 nM.

The experiment is the same for the next values; noted with them: ALK5 25 nM, peptide TGFbR1 0.1 mg/mL, ATP 7 μM, 30° C. 1 hour, ADP-Glo luminescence.
Turning to `Cc1cccc(/C=C\c2ccc3ncc(C(=O)NC4CC4)n3c2)n1` [Compound 4], the midpoint of inhibition, the IC50, lay at 17 nM. Turning to `Cc1cccc(/C=C\c2ccn3ncc(C(N)=O)c3c2)n1` [Compound 13], the IC50 turned out to be 5.1 nM. Consider `Cc1cccc(/C=C\c2ccc3ncc(C(N)=O)nc3c2)n1` [Compound 14], for which inhibition was half-maximal at 78 nM (IC50).

Compound `Cc1cccc(C2=C(c3ccc4ncc(C(N)=O)n4c3)CCCC2)n1` [Compound 16] displayed an IC50 of 48 nM. Take `Cc1cccc(/C=C(/C(=O)O)c2ccc3ncc(C(N)=O)n3c2)n1` [Compound 17]: the IC50 was found to be 616 nM. Still for that read-out and setting: to `Cc1cccc(/C=C(/C(=O)OC(C)(C)C)c2ccc3ncc(C(N)=O)n3c2)n1` [Compound 17a] belongs 6.6 nM. Compound `Cc1cccc(/C=C(/C(=O)N(C)C)c2ccc3ncc(C(N)=O)n3c2)n1` [Compound 20] yielded an IC50 of 34 nM.

For the origin of these results see patent US11447490B2, “Aromatic heterocyclic substituted olefin compound, preparation method for same, pharmaceutical composition of same, and applications thereof” (SHANGHAI YINGLI PHARMACEUTICAL CO., LTD, priority 2018, dated 2022).
